Measurements from patent US12173320B2, “Production of red blood cells and platelets from stem cells” (BOSTON MEDICAL CENTER CORPORATION, priority 2012, dated 2024).
Like-named read-outs stand apart in the source and are kept apart here. Blank lines part the entries; values can stand above or below the compound they belong to.

Assays:
Assay type in all cases: cell-based, human
[1] = tested on: AhR (CYP1B1 target gene expression) in iPSCs; experiment: Quantitative RT-PCR of AhR target gene CYP1B1 in iPSCs
Experimental: RNA was extracted using the RNeasy kit (Qiagen) according to the manufacturer's instructions and DNase treated using the DNA-free kit (Ambion AM1906). Reverse transcription into cDNA was performed using the High Capacity cDNA Reverse Transcription Kit (Applied Biosystems 4368814). Quantitative (real time) PCR amplification of cDNA was performed using Taqman probes for AHR (Hs00169233 ml), CYP1B1 (Hs002382916 sl), HBA (Hs00361191 gl), HBB (Hs00758889 sl), HBG (Hs01629437 sl), vWF (Hs00169795 ml), PF4 (Hs00427220 gl), NF-E2 (Hs00232351 ml) and CD62P (Hs00927900 ml) and run on the Applied Biosystems StepOne machine. […]
To characterize AhR expression and functionality in both undifferentiated iPSCs and directly differentiated MEPs, AhR protein levels were determined via Western blot in these populations. AhR receptor was robustly expressed in day 30 and day 60 MEPs (FIG. 4A). However, AhR protein was not detected by western blotting in iPSC populations, and we postulated that AhR was expressed at extremely low levels in iPSCs, i.e., below the level of detectability with the antibodies used for Western blots. To test this hypothesis, the ability of FICZ to induce a prototypic AhR-target gene, CYPIB1, in iPSCs or, as a positive control, MEPs was assessed by quantitative RT-PCR.

[2] = tested on: AhR (CYP1B1 target gene expression) in MEPs; experiment: Quantitative RT-PCR of AhR target gene CYP1B1 in MEPs
Experimental: (§1) 6-formylindolo[3,2-b]carbazole (FICZ), an AHR small molecule agonist, and CH223191, an AHR competitive inhibitor were used for these assays. CH223191 was added to mesoderm cultures at Day 6 at 5 μM (lx) and 2.504 (0.5×). 0.2 μM FICZ was added to cultures at Day 7 and media was added daily. DMSO was used as a vehicle control.
RNA was extracted using the RNeasy kit (Qiagen) according to the manufacturer's instructions and DNase treated using the DNA-free kit (Ambion AM1906). Reverse transcription into cDNA was performed using the High Capacity cDNA Reverse Transcription Kit (Applied Biosystems 4368814). Quantitative (real time) PCR amplification of cDNA was performed using Taqman probes for AHR (Hs00169233 ml), CYP1B1 (Hs002382916 sl), HBA (Hs00361191 gl), HBB (Hs00758889 sl), HBG (Hs01629437 sl), vWF (Hs00169795 ml), PF4 (Hs00427220 gl), NF-E2 (Hs00232351 ml) and CD62P (Hs00927900 ml) and run on the Applied Biosystems StepOne machine. Relative gene expression was normalized to B-actin (Hs99999903 ml).
To characterize AhR expression and functionality in both undifferentiated iPSCs and directly differentiated MEPs, AhR protein levels were determined via Western blot in these populations. […] To test this hypothesis, the ability of FICZ to induce a prototypic AhR-target gene, CYPIB1, in iPSCs or, as a positive control, MEPs was assessed by quantitative RT-PCR.

[3] = tested on: iPSC-derived MEPs; experiment: Live versus dead cell FACS (propidium iodide vs. Hoechst) of MEPs; conditions: pre-treated for 24 hours with 5 μM CH223191 before FICZ
Experimental: as §1
(§2) Roughly 10^5 cells were collected, spun, and re-suspended in 0.5% BSA in PBS. Samples were incubated for 30 min at ambient temperature with human antibodies including CD41a-FITC (BD 555466), CD235-PE (BD 555570), CD71-FITC (BD 555536), washed and spun at 3300 rpm for 7 min, and re-suspended in 0.5% BSA in PBS with 1 ug/ml Propidium Iodide. Samples were run on a BD FACScalibur using Cellquest Pro software and analyzed via FloJo 8.7. For ploidy analysis, cells were treated with 1.5% NP-40 (Boston Bioproducts P-872) and 62.5 ug/ml Propidium Iodide in PBS immediately before FACScalibur interrogation. For murine bone marrow, samples were first incubated for 5 min at ambient temperature with murine conjugated antibody CD16/32 (BD 553142) before a 30 min incubation with c-Kit-PE (BD 553355), CD41a-FITC (BD 553848), Ter119-PE (BD 553673). For cell viability assays, 2-3×10 ^5 cells were collected, re-suspended in 8.8 ug/ml Hoecsht 33342 in PBS supplemented with 5% FBS. Samples were then incubated in the dark at 37° C. for 15 min, washed, and re-suspended in 1 ug/ml Propidium Iodide in 5% FBS. Samples were run on an LSR-II machine with FACSDiva software and analyzed via FloJo 8.7.
In order to determine whether FICZ-mediated transactivation of the AhR receptor was responsible for the exponential expansion of iPSC-derived MEPs, the previously described Hoecsht/Propidium Iodide apoptosis assay was performed using the known AhR inhibitor CH223191. As previously shown in FIG. 3, fewer cells stained with propidium iodide after FICZ treatment (e.g., 15.5% vs. 8.09%) (FIG. 5E). […] The efficacy of the CH223191 was confirmed by its ability to block CY1^31B1 induction as assayed by qRT-PCR (FIG. 5F).

[4] = tested on: iPSC-derived MEPs; experiment: Growth / expansion of MEP cultures (manual counts, trypan blue exclusion)
Experimental: Plots were gated first in FSC vs. SSC and then from that population for PI ‘ and PE Hoechst’. […] (B) Representative phase contrast images of MEP population+FICZ. (C) Growth curve of day 15 MEPs+/−[…] FICZ. Cells were counted manually using trypan blue exclusion. Graphical data and the associated statistics are the result of three independent experiments per group.
High passage iPSCs were plated onto matrigel coated 6-well plates in iPSC media conditioned on iMEFs for 24 hours and supplemented with 2 ng/ml Rho Kinase Inhibitor and 20 ng/ml bFGF. After two days, iPSC media was replaced with Mesoderm DO-1 media: RPMI (Invitrogen A1049101) supplemented with 5 ng/mlhBMP-4 (R&D 314-BP-010), 50 ng/ml hVEGF (R&D 293-VE-010), 25 ng/mlhWnt3a (R&D 287-TC-500) and 10% KOSR. At Day 2, Mesoderm DO-1 media was replaced with Mesoderm D2 media: RPMI supplemented with 5 ng/ml hBMP-4, 50 ng/mlhVEGF, 20 ng/ml bFGF and 10% KOSR. Mesoderm D3 media consisted of the following: StemPro 34 (Invitrogen 10639011), 5 ng/ml hBMP-4, 50 ng/mlhVEGF, and 20 ng/ml bFGF. Mesoderm media for days 4 and 5 consisted of: StemPro 34, 15 ng/mlhVEGF, and 5 ng/ml bFGF. Day 6 mesoderm media: 74% IMDM (Invitrogen 12330061), 24% Hams F12 (Mediatech 10-080-CV), 1% B27 supplement (Invitrogen 12587-010), 0.5% N2-supplement (Invitrogen 17502-048), 0.5% BSA (Sigma A3059), 50 ng/ml hVEGF, 100 ng/mlbFGF, 100 ng/ml hSCF (R&D 255-SC-010), 25 ng/ml hFlt3 Ligand (R&D 308-FKN-005). Day 7 media: 74% IMDM, 24% Hams F12, 1% B27 supplement, 0.5% N2-supplement, 0.5% BSA, 50 ng/ml hVEGF, 100 ng/ml bFGF, 100 ng/ml hSCF, 25 ng/ml hFlt3 Ligand, 50 ng/ml hTPO (Genentech G140BT), 10 ng/ml IL-6 (R&D 206-IL-010), 0.5 U/ml hEPOgen and 0.2 uM 6-formylindolo[3,2-b]carbazole (FICZ) (Santa Cruz SC300019). After Day 7, 0.5 ml of Day 7 media was added to the culture daily without aspirating the media from the previous day. All base media mixes included 2 mM L-Glutamine (Invitrogen 25030081), 4×10^-4M Monothioglycerol (Sigma M1753), 100 ug/ml Primocin, and 50 ug/ml Ascorbic Acid. Cells in suspension were collected and assayed at Days 10-13 or split for long-term culture.
as §1

[5] = tested on: AhR; experiment: Lentiviral AhR reporter (MMTV-DRE dsRed / luciferase) in MEPs; conditions: day 30 MEPs, 0.2 μM FICZ plus 5 μM CH223191
[6] = tested on: iPSC-derived MEPs; experiment: Immunophenotyping of MEP lineage specification (CD235, CD71, CD41 FACS); conditions: day 30 MEPs, basal cytokine conditions, versus vehicle
Experimental: as §2
In our previous studies in which we noted exponential expansion of iPSC-derived MEPs (FIG. 3), the AhR-mediated effect that we noted allowed us to culture cells for extended periods of time (>120 days). […]

responsiveness to AhR agonist (CYP1B1 RT-PCR) [1]: responsive | responsiveness to AhR agonist (CYP1B1 RT-PCR) ([2]; MEP, normalized to GAPDH): responsive
Compound: O=c1cc(-c2ccccc2)oc2ccc3ccccc3c12 [(3-NF, P-naphtoflavone]

CYP1B1 induction by FICZ ([2]; MEPs pretreated with CH223191 at D6, FICZ at D7): block | DsRed reporter expression [5]: significant decrease
Compound: Cc1ccccc1N=Nc1ccc(NC(=O)c2ccnn2C)c(C)c1 [CH223191, 2-methyl-2H-pyrazole-3-carboxylic acid (2-methyl-4-o-tolylazo-phenyl)-amide]
percentage of PI+ cells, vehicle versus FICZ-treated cultures [3]: approximately the same | expansion of MEPs ([4]; 2.5 μM CH223191 pre-treatment before addition of FICZ): still capable of expansion | expansion of MEPs ([4]; 5 μM CH223191 pre-treatment + FICZ): No significant expansion | CD41+ megakaryocyte-lineage cells [6]: small but defined population

Compound: Clc1cc2c(cc1Cl)Oc1cc(Cl)c(Cl)cc1O2 [TCDD, 2,3,7,8-tetrachlorodibenzo(p)dioxin]
responsiveness to AhR agonist (CYP1B1 RT-PCR) ([1]; iPSC treated for 4 days, normalized to GAPDH): responsive
